The values below are quoted from earlier work in patent publication US20250387523A1, “COMBINATION THERAPY OF RADIONUCLIDE COMPLEX” (Novartis AG, priority 2021, published 2025).

Each structure is given as a SMILES string. Read-outs that look alike come from different tables or passages of the source.

For one data set, the system named is recurrent glioblastoma. The following applies: randomized 2:1.
The subject of data set [1] is newly diagnosed glioblastoma.
The test system of data set [2] is newly diagnosed glioblastoma. The following applies: newly diagnosed patients; temozolomide added to radiation therapy (radiotherapy alone 12.1 months).

On to `O=NN(CCCl)C(=O)NC1CCCCC1` [lomustine], for which, in the data set with recurrent glioblastoma, the “median OS” value is given as 8.6 months and the “median PFS” value was 1.5 months.
For the molecule `Cn1nnc2c(C(N)=O)ncn2c1=O` [temozolomide, 3,4-Dihydro-3-methyl-4-oxoimidazo[5,1-d][1,2,3,5]tetrazine-8-carboxamide], the median survival is given as 21.7 months in data set [1] (patients with a methylated MGMT promoter, temozolomide and radiotherapy (radiotherapy only 15.3 months, P=0.007)); 12.7 months in data set [1] (tumors not methylated at the MGMT promoter, temozolomide plus radiotherapy (radiotherapy only 11.8 months, P=0.06)). In addition, the median overall survival in data set [2] is on record as 14.6 months. Further, the “longer median survival with MGMT promoter methylation” value in the data set with glioblastoma (glioblastoma patients treated with temozolomide, MGMT promoter methylation present vs lacking) is “approximately 50%”. In the data set with glioblastoma (patients that lack MGMT promoter methylation), the clinical benefit result is “no clinical benefit”.
